Results as given in ChEMBL document CHEMBL6074706, “Inhibition of the Binding of Interleukin 17A with Interleukin 17A Receptor as a Treatment for Immune System and Inflammation Disorders, Cancer, and Neurodegenerative Diseases” (ACS Med Chem Lett, 2024).

Assay: Inhibition of human IL-17A binding to recombinant human Fc-tagged IL-17RA preincubated with IL-17A for 30 mins followed by receptor addition and measured after 90 mins by AlphaLISA plate reader analysis

Compound	IC50
CC(C)n1nccc1C(=O)N[C@H](C(=O)Nc1cc(O[C@@H]2C[C@@H](C(F)(F)F)NC2=O)ccn1)[C@H]1CC[C@H](C)CC1	1210 nM
CC[C@H](c1ccnc(NC(=O)[C@H](NC(=O)c2ccnn2C)[C@H]2CC[C@H](C)CC2)c1)N1C[C@@H](C(F)(F)F)NC1=O	6 nM
CCc1ncoc1C(=O)N[C@H](C(=O)Nc1cc(C[C@H]2C[C@@H](C(F)(F)F)NC2=O)ccn1)C1CCC(F)(F)CC1	465 nM
CCc1nonc1C(=O)N[C@H](C(=O)Nc1cc([C@@H](COC)N2CC(F)(F)CNC2=O)ccn1)C1CCC(F)(F)CC1	19 nM
CC(C)(C)OC(=O)N[C@H](C(=O)Nc1cc(CN2C[C@@H](C(F)(F)F)NC2=O)ccn1)[C@H]1CC[C@H](C)CC1	148 nM
CC1(C)CN(Cc2ccnc(NC(=O)[C@@H](NC(=O)c3nonc3C3CC3)[C@H]3CC[C@H](C)CC3)c2)C(=O)N1	105 nM
Cn1nccc1C(=O)N[C@H](C(=O)Nc1cc(OC2CCNC2=O)ccn1)[C@H]1CC[C@H](C)CC1 (some centres undefined)	8970 nM
C[C@H]1CC[C@H]([C@H](NC(=O)c2nonc2C2CC2)C(=O)Nc2cc(CN3C[C@@H](C(F)(F)F)NC3=O)ccn2)CC1	25 nM
CCc1nonc1C(=O)NC(C(=O)Nc1cc([C@@H](COC)N2C[C@@H](C(F)(F)F)NC2=O)ccn1)C1CCC(F)CC1 (some centres undefined)	17 nM
CCc1nocc1C(=O)N[C@H](C(=O)Nc1cc([C@@H](COC)N2C[C@@H](C(F)(F)F)NC2=O)ccn1)[C@H]1CCCC(F)(F)C1	51 nM
COCC(NC(=O)CCC(F)(F)F)c1ccnc(NC(=O)[C@@H](NC(=O)c2ccnn2C(C)C)C2CCC(F)(F)CC2)c1 (some centres undefined)	1360 nM
CCC[C@H](c1ccnc(NC(=O)[C@@H](NC(=O)c2nocc2CC)C2CCC(F)(F)CC2)c1)N1C[C@@H](C(F)(F)F)NC1=O	18 nM
COCC(c1ccnc(NC(=O)[C@@H](NC(=O)c2nonc2C2CC2)[C@H]2CC[C@H](C)CC2)c1)N1C[C@@H](C(F)(F)F)NC1=O (some centres undefined)	11 nM
CCc1nonc1C(=O)N[C@H](C(=O)Nc1cc(C(COC)N2C[C@@H](C(F)(F)F)NC2=O)ccn1)[C@H]1CC[C@H](C)CC1 (some centres undefined)	4 nM
